# Test results taken from patent US11253592B2, “Water-soluble compounds with aggregation-induced emission characteristics” (THE HONG KONG UNIVERSITY OF SCIENCE AND TECHNOLOGY, priority 2017, dated 2022).
# How the values were obtained:
# HeLa cells [1] = test: Photostability under continuous laser irradiation in stained cells; assay type: cell-based; settings: 15 min continuous laser irradiation, λex 488 nm
# Procedure: For photostability studies, TTVP-labelled HeLa cells were imaged by a confocal microscope (Zeiss laser scanning confocal microscope LSM7 DUO) using ZEN 2009 software (Carl Zeiss). Conditions: for TTVP, excitation wavelength: 488 nm; for DiO, excitation wavelength: 488 nm (5% laser power).
# The specificity of TTVP to plasma membrane was evaluated by co-staining with DiO, which is a commercially available bioprobe for plasma membrane. In this co-localization experiment, after incubating HeLa cells with DiO for 10 min, TTVP was added into the culture followed by culture shaking for a few seconds at room temperature. In order to accommodate the staining protocol of DiO, postwashing after cell staining was carried out. As shown in FIGS. 9A-9H, TTVP can selectively accumulate in the plasma membrane and emit strong red fluorescence. The well-merged images of TTVP and DiO indicate the high specificity of the compounds to the plasma membrane, and the Pearson's correlation coefficient is determined to be 89%. To assess the photostability of TTVP and DiO, continuous excitation and sequential scanning with confocal microscope were utilized.
# HeLa cells [2] = test: MTT cytotoxicity in dark conditions (biocompatibility); assay type: cell-based
# Procedure: For cytotoxicity studies relating to biocompatibility of the present compounds to Hela cells, MTT assays were used to evaluate the cytotoxicity of the presented AIEgens. Cells were seeded in 96-well plates (Costar, IL, USA) at a density of 6000-8000 cells/well. After overnight culturing, medium in each well were replaced by 100 μL fresh medium containing different concentrations of TTVP. 24 hours later, 10 μL MTT solution (5 mg/mL in PBS) was added into each well. After 4 hours of incubation, 100 μL SDS-HCl aqueous solution (10% SDS and 0.01 M HCl) was added to each well. After incubation for 4 hours, the absorption of each well at 595 nm was recorded via a plate reader (Perkin-Elmer Victor3™). Each trial was performed with 6 wells parallel.
# (§1) Effective ROS generation of the present compounds in PDT applications was quantitatively evaluated on HeLa cells by a standard MTT assay. A dose-dependent toxicity was determined in both the absence and presence of white light irradiation. […] In comparison, HeLa cells retained 90% viability when they were incubated with 1 μM of TTVP in dark conditions. Furthermore, flow cytometric analysis using Annexin V-FITC/propidium iodide (PI) double staining was utilized to determine cell apoptosis (FIGS. 11C and 11D). […]
# [3] = system: plasma membrane of living HeLa cells; test: Plasma membrane cell imaging by confocal microscopy; assay type: cell-based
# Procedure: (§2) For cell imaging, cells were grown in a 35 mm Petri dish with a coverslip at 37° C. The live cells were incubated with a certain dye at a certain concentration for a certain time. After adding TTVP (500 nM), the Petri dish was shaken for a few seconds at room temperature, then the coverslip was removed. The TTVP-labelled cells were mounted and imaged using a laser scanning confocal microscope (LSM7 DUO) at 512 nm with 5% laser power (the scanning rate was 22.4 s per frame). The emission filter was 600-744 nm.
# As a water-soluble NIR-emissive AIEgen, TTVP maintains an “off” state in an aqueous environment. As such, TTVP can serve as a “light-up” probe for bioimaging with minimal background interference from both free dyes and bio-substrate autofluorescence. In preliminary bioimaging experiments, cell imaging studies were conducted using HeLa cells as a cell model, and incubating 500 nM of TTVP for 10 min. […] The influence of incubation period was then investigated by utilizing a wash-free procedure with different staining times. […] The plasma membrane-staining ability of TTVP can be mainly attributed to its good hydrophilicity, which impedes the permeation of TTVP passing through the hydrophobic region of phospholipid bilayers. It is believed that the emitting moiety of TTVP is embedded within the hydrophobic region with low polarity, evidently giving fluorescent emission upon irradiation according to the restriction of intramolecular motions (RIM) mechanism of the AIE process (FIG. 6G). […] Additionally, ultrafast staining could result from the excellent monodispersity of TTVP in culture media of cells.
# [4] = ROS generation with H2DCF-DA indicator under white light; settings: 10 μM TTVP, 5 μM H2DCF-DA in PBS, white light 10 mW, within 60 s
# Excerpt: The strong absorption of TTVP in the visible light region permits utilization of visible light as the excitation light source for PDT processes. Visible light causes less damage to biological systems than UV light. The ROS generation efficiency of TTVP was initially determined by the use of H2DCF-DA as an indicator, which emits fluorescence with a “turn on” process triggered by ROS. As depicted in FIG. 11A, TTVP or H2DCF-DA alone was non-emissive or weekly emissive, and each fluorescence intensity remained almost constant within 60 s white light irradiation. […] The efficient ROS generation of TTVP could be attributed to both its small singlet-triplet energy gap (0.47 eV) and excellent monodispersity. The former favors the improvement of the yield of the triplet excited state, and the latter can enlarge contact area between TTVP and oxygen.
# Water solubility = assay type: physicochemical
# Excerpt: (§3) TTVP benefits from its positively charged amine and pyridinium salt having hydrophilic characteristic, as well as the small size of the hydrophobic moiety. […] The relatively long absorption wavelength can be attributed to its small HOMO-LOMO energy gap, which is caused by the strong electron donating-accepting interaction of the emitting center (FIGS. 3A-3C).
# [5] = Photophysical (optical) properties of TTVP; assay type: physicochemical
# Procedure: H spectra were measured on Bruker ARX 400 NMR spectrometers using CD3OD as the deuterated solvent. High-resolution mass spectra (HRMS) were recorded on a Finnegan MAT TSQ 7000 Mass Spectrometer System operating in a MALDI-TOF mode. UV absorption spectra were taken on a Milton Ray Spectronic 3000 array spectrophotometer. Steady-state fluorescence spectra were recorded on a Perkin Elmer LS 55 spectrometer. Fluorescence images were collected on Olympus BX 41 fluorescence microscope. Laser confocal scanning microscope images were collected on Zeiss laser scanning confocal microscope (LSM7 DUO) and analyzed using ZEN 2009 software (Carl Zeiss).
# as §3
# (§4) Dynamic light scattering analysis (DLS) and transmission electron microscope (TEM) measurements were performed to confirm the formation of aggregates upon the addition of THF into the TTVP aqueous solution. […] In the solid state, TTVP emitted at 705 nm with 2.7% of quantum yield and 0.92 ns of lifetime (FIGS. 4-5, Table 1).
# HeLa cells [6] = test: MTT cytotoxicity under white light irradiation (PDT); assay type: cell-based; settings: white light irradiation (around 10 mW) 10 min
# Procedure: For cytotoxicity studies relating to cytotoxicity of the present compounds to cancer cells under light irradiation, HeLa cells were seeded in 96-well plates (Costar, IL, USA) at a density of 6000-8000 cells/well. After overnight culturing, medium in each well were replaced by 100 μL fresh medium containing different concentrations of TTVP. After incubation for 3 s, plates containing HeLa cells were exposed to white light (around 10 mW) for 10 min, and another array of plates with cells were kept in dark as control. Then the plates were subjected to the same treatment as the biocompatibility test.
# as §1
# [7] = DLS analysis of nanoaggregates in water/THF; assay type: physicochemical; settings: suspension with 90% fraction of THF
# Procedure: as §4
# HeLa cells [8] = test: Flow cytometry Annexin V-FITC/PI double staining for apoptosis and necrosis; assay type: cell-based; settings: 500 nM
# Procedure: Effective ROS generation of the present compounds in PDT applications was quantitatively evaluated on HeLa cells by a standard MTT assay. A dose-dependent toxicity was determined in both the absence and presence of white light irradiation. […] In comparison, HeLa cells retained 90% viability when they were incubated with 1 μM of TTVP in dark conditions. Furthermore, flow cytometric analysis using Annexin V-FITC/propidium iodide (PI) double staining was utilized to determine cell apoptosis (FIGS. 11C and 11D). […] It is worth noting that continuous light irradiation with strong power (around 18.5 times higher than that for cell imaging depicted in FIGS. 6A-6H and FIGS. 8A-8H) led to some changes of cells, for instance, TTVP can gradually enter the cells (FIGS. 11E-11I); the cell membrane morphology changed, and the formation of blebs on the plasma membrane was clearly observed, which is a sign of cell death. Those changes can be attributed to the fact that the ROS generated from TTVP considerably disrupts the rigidity and permeability of plasma membrane, and induces cancer cell death. FIGS. 12A, 12B, 12C, 12D, and 12E depict bright-field confocal images of HeLa cell stained with TTVP upon the increase of irradiation time. λex: 488 nm (20% laser power, 0.925 μW).
# HCC827 cells = test: Ultrafast wash-free plasma membrane imaging; assay type: cell-based; settings: 500 nM, around 3 s
# Procedure: as §2
# (§5) Encouraged by the distinct advantages of TTVP for membrane-specific imaging, this ultrafast staining and wash-free cellular imaging protocol was further employed for staining other cell lines, including 293T, HCC827, HCT116, and MDCK2.
# HCT116 cells = test: Ultrafast wash-free plasma membrane imaging; assay type: cell-based; settings: 500 nM, around 3 s
# Procedure: as §2, §5
# 293T cells = test: Ultrafast wash-free plasma membrane imaging; assay type: cell-based; settings: 500 nM, around 3 s
# Procedure: as §2, §5
# MDCK2 cells = test: Ultrafast wash-free plasma membrane imaging; assay type: cell-based; settings: 500 nM, around 3 s
# Procedure: as §2, §5
smiles,measurement,setting,value
"CCCCCCCCCCCCCCCCCCN1/C(=C\C=C\c2oc3ccccc3[n+]2CCCCCCCCCCCCCCCCCC)Oc2ccccc21.[O-][Cl+3]([O-])([O-])[O-] [DiO, reference compound]",change of emission intensity on irradiation (photostability),HeLa cells [1],fluorescence loss of DiO was very obvious
C[N+](C)(C)CCC[n+]1ccc(/C=C/c2ccc(-c3ccc(N(c4ccccc4)c4ccccc4)cc3)s2)cc1 [TTVP],change of emission intensity on irradiation (photostability),HeLa cells [1],slightly decreased
same,cytotoxicity in dark conditions,HeLa cells [2],low cytotoxicity
same,cell viability,HeLa cells [2]; 1 μM,90%
same,plasma membrane visualization,"[3]; 500 nM, 10 min incubation, with or without washing",clearly visualized with excellent image contrast
same,plasma membrane staining,"[3]; 500 nM, shaking a few seconds at room temperature, wash-free",lit up significantly
same,cellular localization after long staining,"[3]; 500 nM, staining for 6 hours",A majority of TTVP entered the cells
same,plasma membrane visualization,"[3]; 500 nM, staining time 4 h",still be clearly visualized
same,maximum emission of stained living cells,[3]; living HeLa cells stained with TTVP,623 nm
same,enhancement of H2DCF-DA emission intensity (ROS generation),[4],87 fold
same,water solubility,Water solubility,good water solubility
same,"λem (nm) Aggr, maximum emission in aggregated state","[5]; aggregated state, water/THF mixture",708 nm
same,"ε, molar extinction coefficient","[5]; aqueous solution, at 515 nm",33517 M⁻¹ cm⁻¹
same,"λabs (nm), absorption maximum",[5]; aqueous solutions,515 nm
same,"λem (nm) Solid, emission maximum in solid state",[5]; solid state,705 nm
same,"τ, fluorescence lifetime","[5]; solid state, ambient conditions",0.92 ns
same,"ΦF, fluorescence quantum yield","[5]; solid state, calibrated integrating sphere",2.7%
same,cell death,HeLa cells [6]; 1 μM,almost complete cell death
same,viability at 0.5 µM,"HeLa cells [6]; Homo sapiens, HeLa, light or radiation study, 10 min, 500 nM, read-out: cell viability",15%
same,average hydrodynamic diameter of nanoaggregates,[7],around 43 nm
same,polydispersity index,[7],0.13
same,cell necrosis on light irradiation,HeLa cells [8],caused cancer cell necrosis in a short period of time
same,plasma membrane visualization,HCC827 cells,clearly visualized
same,plasma membrane visualization,HCT116 cells,clearly visualized
same,plasma membrane visualization,293T cells,clearly visualized
same,plasma membrane visualization,MDCK2 cells,clearly visualized
